Patent publication US8916567B2, “Certain crystalline hydrates, pharmaceutical compositions thereof and methods for preparation and use thereof” (Universal Technology Alliance, Inc., priority 2009, dated 2014)

Legend:
E. feacalis = experiment: Minimum inhibitory concentration (MIC) in vitro, agar dilution method; assay type: cell-based; details: hydrate
Outline: (§1)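 Clinical isolates collected in Sichuan and Beijing (2007–2008) were tested by CLSI/NCCLS agar dilution. Compounds were dissolved in DMSO and diluted in sterile distilled water; MIC50, MIC90 and MIC range across strains were derived.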

E. feacium = experiment: as above; assay type: cell-based; details: hydrate
Outline: as §1

S. epidermidis MRSE = experiment: as above; assay type: cell-based; details: hydrate
Outline: as §1

S. epidermidis MSSE = experiment: as above; assay type: cell-based; details: hydrate
Outline: as §1

[1] = tested on: Staphylococcus aureus MRSA; experiment: as above; assay type: cell-based; details: hydrate
Outline: as §1

[2] = tested on: Staphylococcus aureus MSSA; experiment: as above; assay type: cell-based; details: hydrate
Outline: as §1

Staphylococcus aureus = experiment: Minimum inhibitory concentration (MIC) in vitro, agar dilution method, quality control strain; assay type: cell-based; details: strain S. AT C C25923 (Table 7 No. 1); hydrate
From the text: Hydrates Samples: • The 1/2 hydrates prepared according to Example 2; • Content (purity % wt): 99.0%; • The 1/12 hydrates prepared according to Example 253; • Content (purity % wt): 98.9%; • The 2/7 hydrates prepared according to Example 106; • Content (purity % wt): 98.8%; • The 2/5 hydrates prepared according to Example 162; • Content (purity % wt): 99.0%; • The 3/4 hydrates prepared according to Example 337; • Content (purity % wt): 98.8%; • Preparation: dissolved in DMSO, and further diluted with sterile distilled water to desired concentration. • The hydrates samples were supplied by Sichuan Beilike Biotechnology LTD.
Anhydrous Sample: • The anhydrous compounds prepared according to Example 1. • Content (purity % wt): 98.6%; • Preparation: dissolved in DMSO, and further diluted with sterile distilled water to desired concentration; • The anhydrous sample was supplied by Sichuan Beilike Biotechnology LTD.
Control Samples • Vancomycin: provided by Sichuan Beilike Biotechnology LTD, purchased from Eli Lilly Japan K.K. • Lot No.: WM16151 (production date: Apr. 10, 2007, expiration date: Apr. 9, 2009). • Specification: 500 mg/bottle; solubility (physicochemical properties): soluble in water. • Linezolid (LZ): provided by Sichuan Beilike Biotechnology LTD.
Bacteria Strains • Clinically isolated strains: clinically isolated bacterial pathogens collected in Sichuan and Beijing areas from March 2007 to May 2008. • Species include: Staphylococcus aureus MRSA, Staphylococcus aureus MSSA, S. epidermidis MRSE, S. epidermidis MSSE, E. feacalis, and E. feacium, a total of 51 strains. • Quality control strains: Staphylococcus aureus […] strain kept in Sichuan Industrial Institute of Antibiotics, purchased from the medical testing center of the Ministry of Health, China.
Experimental Method: • Measurement of the minimum inhibitory concentration (MIC) in vitro: • The minimum inhibitory concentration (MIC) of each test sample against test strains was measured by using the agar dilution method recommended by the U.S. National Committee for Clinical Laboratory Standards (CLSI/NCCIs).
Based on the CLSI/NCCL's testing standard with respect to vancomycin and linezolid (see Table 6), the minimum inhibitory concentration (MIC) values of every strain were reported, and the MIC50 (the concentration that inhibits 50% of the different strains of bacteria), MIC90 (the concentration that inhibits 90% of the different strains of bacteria), and MICrange (the range of the MIC value of the tested strains) were observed.

[3] = Solubility in different solvents according to Chinese Pharmacopeia (2005 edition); assay type: physicochemical; details: for Result: at the given solute:solvent ratio
Procedure: The solubility of the (S)—[N-3-(3′-fluoro-4′-(4″-phenylpiperazinyl))phenyl-2-oxo-5-oxazolelidinyl]methylacetamide hydrates was tested with different solvents, and the test results are shown in Tables 15-19. The solubility was measured according to Chinese Pharmacopeia (2005 edition).

[4] = E. feacalis (5 strains), clinically isolated
[5] = E. feacium (5 strains), clinically isolated
[6] = S. ep MRSE (10 strains), clinically isolated
[7] = S. ep MSSE (10 strains), clinically isolated
[8] = S. MRSA (10 strains), clinically isolated
[9] = S. MSSA (11 strains), clinically isolated

**Q.** Which results are given for `CC(=O)NC[C@H]1CN(c2ccc(N3CCN(c4ccccc4)CC3)c(F)c2)C(=O)O1` [3/4 hydrate, (S)—[N-3-(3′-fluoro-4′-(4″-phenylpiperazinyl))phenyl-2-oxo-5-oxazolidinyl]methyl acetamide 3/4 hydrate]?
**A.** MIC50 (E. feacalis; [4]): 2 µg/mL; MIC90 (E. feacalis; [4]): 4 µg/mL; MICrange (E. feacalis; [4]): 1 to 4 µg/mL; MIC (E. feacalis; strain Efa 54 (Table 8 No. 20)): 2 µg/mL; MIC (E. feacalis; strain Efa 116 (Table 8 No. 16)): 2 µg/mL; MIC (E. feacalis; strain Efa 907 (Table 8 No. 19)): 1 µg/mL; MIC (E. feacalis; strain Efa 3006 (Table 8 No. 18)): 2 µg/mL; MIC (E. feacalis; strain Efa 33748 (Table 8 No. 17)): 4 µg/mL; MIC50 (E. feacium; [5]): 2 µg/mL; MIC90 (E. feacium; [5]): 4 µg/mL; MICrange (E. feacium; [5]): 1 to 4 µg/mL; MIC (E. feacium; strain Efm 98 (Table 8 No. 21)): 2 µg/mL; MIC (E. feacium; strain Efm 171 (Table 8 No. 25)): 2 µg/mL; MIC (E. feacium; strain Efm 197 (Table 8 No. 22)): 1 µg/mL; MIC (E. feacium; strain Efm N3 (Table 8 No. 23)): 4 µg/mL; MIC (E. feacium; strain Efm N4 (Table 8 No. 24)): 4 µg/mL; MIC50 (S. epidermidis MRSE; [6]): 1 µg/mL; MIC90 (S. epidermidis MRSE; [6]): 1 µg/mL; MICrange (S. epidermidis MRSE; [6]): 1 µg/mL; MIC (S. epidermidis MRSE; strain S. ep MRSE4 (Table 8 No. 9)): 1 µg/mL; MIC (S. epidermidis MRSE; strain S. ep MRSE20 (Table 8 No. 6)): 1 µg/mL; MIC (S. epidermidis MRSE; strain S. ep MRSE87 (Table 8 No. 13)): 1 µg/mL; MIC (S. epidermidis MRSE; strain S. ep MRSE90 (Table 8 No. 10)): 1 µg/mL; MIC (S. epidermidis MRSE; strain S. ep MRSE101 (Table 8 No. 7)): 1 µg/mL; MIC (S. epidermidis MRSE; strain S. ep MRSE105 (Table 8 No. 11)): 1 µg/mL; MIC (S. epidermidis MRSE; strain S. ep MRSE140 (Table 8 No. 14)): 1 µg/mL; MIC (S. epidermidis MRSE; strain S. ep MRSE142 (Table 8 No. 12)): 1 µg/mL; MIC (S. epidermidis MRSE; strain S. ep MRSE210 (Table 8 No. 15)): 1 µg/mL; MIC (S. epidermidis MRSE; strain S. ep MRSE211 (Table 8 No. 8)): 1 µg/mL; MIC50 (S. epidermidis MSSE; [7]): 0.5 µg/mL; MIC90 (S. epidermidis MSSE; [7]): 1 µg/mL; MICrange (S. epidermidis MSSE; [7]): 0.5 to 1 µg/mL; MIC (S. epidermidis MSSE; strain S. ep MSSE87 (Table 7 No. 23)): 0.5 µg/mL; MIC (S. epidermidis MSSE; strain S. ep MSSE88 (Table 8 No. 5)): 1 µg/mL; MIC (S. epidermidis MSSE; strain S. ep MSSE113 (Table 7 No. 24)): 0.5 µg/mL; MIC (S. epidermidis MSSE; strain S. ep MSSE116 (Table 7 No. 25)): 0.5 µg/mL; MIC (S. epidermidis MSSE; strain S. ep MSSE118 (Table 8 No. 2)): 0.5 µg/mL; MIC (S. epidermidis MSSE; strain S. ep MSSE119 (Table 7 No. 27)): 1 µg/mL; MIC (S. epidermidis MSSE; strain S. ep MSSE137 (Table 8 No. 4)): 1 µg/mL; MIC (S. epidermidis MSSE; strain S. ep MSSE140 (Table 8 No. 3)): 0.5 µg/mL; MIC (S. epidermidis MSSE; strain S. ep MSSE142 (Table 7 No. 26)): 1 µg/mL; MIC (S. epidermidis MSSE; strain S. ep MSSE153 (Table 8 No. 1)): 1 µg/mL; MIC50 [1, 8]: 1 µg/mL; MIC90 [1, 8]: 1 µg/mL; MICrange [1, 8]: 0.5 to 1 µg/mL; MIC ([1]; strain S. MRSA 29 (Table 7 No. 15)): 0.5 µg/mL; MIC ([1]; strain S. MRSA 101 (Table 7 No. 14)): 1 µg/mL; MIC ([1]; strain S. MRSA 201 (Table 7 No. 13)): 1 µg/mL; MIC ([1]; strain S. MRSA B27 (Table 7 No. 21)): 0.5 µg/mL; MIC ([1]; strain S. MRSA B105 (Table 7 No. 17)): 1 µg/mL; MIC ([1]; strain S. MRSA B143 (Table 7 No. 19)): 1 µg/mL; MIC ([1]; strain S. MRSA B151 (Table 7 No. 20)): 1 µg/mL; MIC ([1]; strain S. MRSA B164 (Table 7 No. 16)): 1 µg/mL; MIC ([1]; strain S. MRSA B199 (Table 7 No. 22)): 0.5 µg/mL; MIC ([1]; strain S. MRSA B617 (Table 7 No. 18)): 1 µg/mL; MIC50 [2, 9]: 1 µg/mL; MIC90 [2, 9]: 1 µg/mL; MICrange [2, 9]: 0.5 to 1 µg/mL; MIC ([2]; strain S. MSSA 123 (Table 7 No. 3)): 1 µg/mL; MIC ([2]; strain S. MSSA 187 (Table 7 No. 7)): 1 µg/mL; MIC ([2]; strain S. MSSA 195 (Table 7 No. 6)): 1 µg/mL; MIC ([2]; strain S. MSSA 195 (Table 7 No. 12)): 1 µg/mL; MIC ([2]; strain S. MSSA 201 (Table 7 No. 11)): 0.5 µg/mL; MIC ([2]; strain S. MSSA 232 (Table 7 No. 2)): 1 µg/mL; MIC ([2]; strain S. MSSA 275 (Table 7 No. 10)): 0.5 µg/mL; MIC ([2]; strain S. MSSA 466 (Table 7 No. 8)): 0.5 µg/mL; MIC ([2]; strain S. MSSA 519 (Table 7 No. 9)): 1 µg/mL; MIC ([2]; strain S. MSSA 520 (Table 7 No. 4)): 1 µg/mL; MIC ([2]; strain S. MSSA 580 (Table 7 No. 5)): 1 µg/mL; MIC (Staphylococcus aureus): 1 µg/mL; Solubility compared with the anhydride ([3]; different solvents): sometimes more soluble than the anhydride; Result ([3]; solvent 0.1N Hydrochloric acid): Dissolved; Result ([3]; solvent 0.1N Sodium hydroxide): Insoluble; Result ([3]; solvent Acetonitrile): Dissolved; Result ([3]; solvent Ethanol): Dissolved; Result ([3]; solvent Methanol): Dissolved; Result ([3]; solvent Water, listed as ¾ hydrate, hydrate): Dissolved
